Laboratory results reported in patent publication US20260199365A1, “BIS-SULFONAMIDE SHIP1 ACTIVATORS” (The Research Foundation for the State University of New York, priority 2022, published 2026).

Tested on: IL-6 production in BV-2 cells
Assay: ELISA quantitation of IL-6 production in BV-2 cells after stimulation with LPS
Type: cell-based, murine
Conditions: 1 h pretreatment with SHIP1 activator 10 μM, then LPS
Method: FIG. 3 presents an ELISA quantitation of IL-6 production in BV-2 cells after stimulation with LPS. BV-2 cells were plated and treated for 1 h with vehicle (Veh, 0.25% DMSO) or SHIP1 activator (10 μM in Veh) prior to addition of LPS (100 ng/ml). Unstimulated BV2 cells treated with Veh are shown as an additional control to assess LPS induction of IL-6. (A) Evaluation of 1, 26, 29 and 53. (B) In a separate experiment, 70, and 71 were evaluated under similar conditions. Bars indicate Mean G SEM; statistical tests: two-way ANOVA with Tukey correction, **** p<0.0001, ** p<0.01.
Given this experience, some of the new activators were evaluated in a cell-based setting. Using the immortalized BV-2 cell line, which is derived from murine microglia and retains many microglial morphological and functional characteristics of microglia, an assay for the anti-inflammatory effects of these activators was developed. This assay involved treatment of the cells with lipopolysaccharides (LPS) to induce IL-6 production which can then be quantified with an ELISA.
Cell culture: The BV2 cell line was obtained from the ATCC (American Type Culture Collection). The ATCC and performs genetic validation on deposited cell lines. For the inflammatory cytokines production studies, BV2 cells were cultured in DMEM/F12 (Corning) 10% HI FBS at 37° C. and 5% CO2 in a humidified incubator and split 1:6 every 3 days with Cellstripper™ (Corning). Cells were kept at 37° C. and 5% CO2 in a humidified incubator.
ELISA measurements: Parental (scrambled guide control) BV2 cells were seeded at 5×10^5/mL, […] in 48 well plate. Cell were treated with […] small molecule or vehicle control (0.5% DMSO) and incubated for 1 h before addition of stimuli. LPS (10 ng/ml, E. coli O111: B4, Sigma) was added to the cells and incubated for 6 h to detect IL-6 production. Supernatants were spun down at 400×g for 5 minutes to remove cell debris and froze at −20° C. for ELISAs. IL-6 levels were quantified from cellular supernatants with ELISA MAX™ Standard Set Mouse IL-6 kit (Biolegend), following manufacturer's recommendations. We detected absorbance at 450 nm and removed 570 nm background absorbance, with a plate reader (Synergy 2, BioTek). All experiments were repeated three times and each value was reported as mean±SEM from biological replicates in the same assay. All statistical analysis were performed using GraphPad Prism (version 9.2). Two-way ANOVA was used to analyze all data with two independent variables as time and treatment or concentration and treatment, data is reported as Mean+/−SEM.

For `Cc1sc(S(=O)(=O)N2CCSCC2)cc1NC(=O)CNS(=O)(=O)c1ccc(F)cc1` [Compound K306, 2-(4-Fluorobenzenesulfonamido)-N-[2-methyl-5-(thiomorpholine-4-sulfonyl)thiophen-3-yl]acetamide], the “IL-6 production induced by LPS” value was “significantly diminished”.
